# Measurements reported in PubChem BioAssay (NCI).
#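 Protocol summary: plate cells (96-well), add compound at 5 concentrations, incubate 48 h, interpolate endpoints linearly. TGI is the concentration that stops growth completely.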
# Legend:
# Assay in all cases: NCI-60 cell line screen, 48 h
# RXF 393 renal = tested on: RXF 393 renal
# COLO 205 colon = tested on: COLO 205 colon
# UACC-257 melanoma = tested on: UACC-257 melanoma
# NCI-H522 lung = tested on: NCI-H522 lung
# 786-0 renal = tested on: 786-0 renal
# NCI-H460 lung = tested on: NCI-H460 lung
# SF-539 CNS = tested on: SF-539 CNS
# OVCAR-8 ovarian = tested on: OVCAR-8 ovarian
# SK-OV-3 ovarian = tested on: SK-OV-3 ovarian
# SR leukemia = tested on: SR leukemia
# U251 CNS = tested on: U251 CNS
# UO-31 renal = tested on: UO-31 renal
# MCF7 breast = tested on: MCF7 breast
# PC-3 prostate = tested on: PC-3 prostate
# SW-620 colon = tested on: SW-620 colon
# SK-MEL-2 melanoma = tested on: SK-MEL-2 melanoma
# DU-145 prostate = tested on: DU-145 prostate
# HCT-116 colon = tested on: HCT-116 colon
# A549 NSCLC = tested on: A549 NSCLC
Compound,TGI (RXF 393 renal) [µM],TGI (COLO 205 colon) [µM],TGI (UACC-257 melanoma) [µM],TGI (NCI-H522 lung) [µM],TGI (786-0 renal) [µM],TGI (NCI-H460 lung) [µM],TGI (SF-539 CNS) [µM],TGI (OVCAR-8 ovarian) [µM],TGI (SK-OV-3 ovarian) [µM],TGI (SR leukemia) [µM],TGI (U251 CNS) [µM],TGI (UO-31 renal) [µM],TGI (MCF7 breast) [µM],TGI (PC-3 prostate) [µM],TGI (SW-620 colon) [µM],TGI (SK-MEL-2 melanoma) [µM],TGI (DU-145 prostate) [µM],TGI (HCT-116 colon) [µM],TGI (A549 NSCLC) [µM]
COC(=O)c1c[nH]c2c1-c1cc(C(=O)OCc3ccccc3)n(S(=O)(=O)c3ccc(C)cc3)c1C(=O)C2=O,1.14,2.08,0.311,0.607,1.02,2.69,0.471,0.927,3.1,3.51,1.13,1.38,0.379,1.19,0.576,0.521,0.287,0.607,1.97
CCN(CC)/[N+]([O-])=N/OCOC(C)=O,> 100,> 100,> 100,> 100,> 100,> 100,> 100,> 100,> 100,> 100,> 100,> 100,> 100,> 100,> 100,> 100,> 100,> 100,> 100
O=C(Cc1nc2ncccc2[nH]c1=O)c1c[nH]c2ccccc12,39.1,31.2,36.1,35.4,40.5,34.4,31.5,81.1,29.8,96.2,35.1,32.5,32.3,29.9,40.5,30.8,32.7,49,47.8
N#Cc1c(O)c(N=Nc2ccc(Cl)cc2)c(=O)n2c1[nH]c1ccccc12,> 100,> 100,> 100,> 100,> 100,> 100,> 100,> 100,> 100,> 100,> 100,> 100,> 100,> 100,> 100,> 100,> 100,> 100,> 100
NC(=O)/C=c1/c2ccccc2n2nc3ccccc3c12,46.5,40.6,41,33.2,77.4,> 100,31.9,27.4,59.3,6.16,29.3,77,> 100,> 100,44.5,57.1,> 100,21,> 100
CCOc1ccc(N=NS(=O)(=O)O)cc1,> 100,> 100,> 100,> 100,> 100,> 100,> 100,> 100,> 100,> 100,> 100,> 100,> 100,> 100,> 100,> 100,> 100,> 100,> 100
COc1ccc2c(c1)CCCN2S(=O)(=O)c1ccccc1[N+](=O)[O-],55.9,> 79.8,> 100,66.5,> 100,> 87.9,68.8,> 89.4,> 77,> 78.8,> 92,> 94.5,99.3,> 100,> 100,72.4,> 100,88.9,> 100
